What all share (assay): inhibition of tumour cell growth, NCI panel, 48 h
In test [1] the test system is NCI-H226 lung.
Test [2] has as its system HS 578T breast.
Test [3] concerns TK-10 renal.
Test [4] deals with CAKI-1 renal.
In test [5] the test system is A498 renal.
Test [6] deals with MDA-MB-435.
In test [7] the test system is NCI-H460 lung.
For test [8], the system named is MALME-3M melanoma.
Test [9] relates to MCF7 breast.
The subject of test [10] is UACC-257 melanoma.

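96-well plates; 48 h exposure; 5 concentrations. Endpoints by linear interpolation between flanking doses. Not reached: highest tested concentration assigned. GI50 = concentration required for 50% inhibition of growth. TGI: concentration producing complete growth inhibition.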

For the compound `C=CC(=O)N[C@@H]1CN(c2nc(Nc3cn(C)nc3OC)c3ncn(C)c3n2)C[C@H]1F`, the GI50 in test [1] is greater than 83 µM; in test [2] it was 34 µM; in [3], 0.0664 µM; in [4], 1.22 µM; in [5] it was 16.4 µM; in test [6], 15.8 µM. For the same compound, the GI50 in test [7] was 34.5 µM; in [8] it was 23.4 µM; in test [9], 17.7 µM; in [10], 35.8 µM. The TGI in test [1] was greater than 100 µM; in test [2] it was greater than 100 µM; in [3], 23.9 µM; in test [4], greater than 100 µM; in test [5], 67.7 µM; in [6], 38.5 µM. The TGI in test [7], in test [8], in test [9] and in test [10] was greater than 100 µM throughout.

With `O=c1cc(-c2ccc(Cl)cc2)[nH]c2ccccc12`, the GI50 is greater than 100 µM in test [1]; 28.9 µM in test [2]; greater than 100 µM in [3]; 47.3 µM in test [4]; 51.6 µM in test [5]; 2.89 µM in [6]. The GI50 in [7] is 39.6 µM; in [8], 53.5 µM; in test [9], 41.3 µM; in test [10], greater than 100 µM. The TGI in test [1] is greater than 100 µM; in test [2], greater than 100 µM; in [3], greater than 100 µM; in test [4], greater than 100 µM; in [5], greater than 100 µM; in test [6], 28.5 µM. Further, the TGI in [7], in test [8], in test [9] and in test [10] was greater than 100 µM throughout.

On to `Oc1ccc2ccccc2c1CCc1c(O)ccc2ccccc12`, for which the TGI worked out at 33.2 µM in test [1]; 45.1 µM in [2]; 32.5 µM in test [3]; 20.5 µM in [4]; 38.2 µM in [5]; 25.4 µM in test [6]. For the same compound, the TGI is 22.2 µM in test [7], 26.9 µM in test [8], 26.3 µM in test [9] and 27.2 µM in test [10].

As for `O=C(Nc1ccc(OS(=O)(=O)c2ccc(F)cc2)cc1)C12CC3CC(CC(C3)C1)C2`, the GI50 in test [1] is 15 µM; in [2] it was 5.9 µM; in test [3], 21.5 µM; in test [4], 29.4 µM; in test [5] it was 0.936 µM; in test [6], greater than 27.9 µM. Also, the GI50 in test [7] is 8.09 µM; in test [8], 9.13 µM; in [9], 0.641 µM; in [10], 11 µM. The TGI in test [1] is greater than 79.3 µM; in test [2], greater than 53.2 µM; in test [3] it was 62.6 µM; in test [4] it was greater than 100 µM; in [5] it was 22.4 µM; in test [6] it was greater than 100 µM. The TGI was greater than 100 µM in test [7], 54.4 µM in test [8], greater than 100 µM in test [9] and greater than 100 µM in [10].

Turning to `CC/C=C\C[C@H]1C/C=C2/C(=O)C=C[C@H]2C/C=C\CCCC(=O)O1`, the GI50 is 3.4 µM in test [1]; 10.3 µM in [2]; 2.54 µM in [3]; 2.29 µM in test [4]; 7.21 µM in test [5]; 1.66 µM in test [6]. Further, the GI50 in test [7] is 2.92 µM; in [8] it was 7.81 µM; in [9], 2.21 µM; in test [10] it was 5.04 µM. Also, the TGI in test [1] is 10.8 µM; in test [2], greater than 50 µM; in test [3] it was 8.01 µM; in test [4], 8.23 µM; in test [5] it was 14.4 µM; in test [6], 6.04 µM. The TGI in test [7] is 14.5 µM; in test [8] it was 17.4 µM; in test [9], 12.4 µM; in test [10] it was 12 µM.

For the compound `O=C(O)C1C2C=CC(O2)C1C(=O)NCc1cccnc1` (stereo not given), the TGI in [1], in test [2], in [3], in test [4], in test [5] and in test [6] was greater than 100 µM in each case. Further, the TGI in test [7], in test [8], in test [9] and in [10] was greater than 100 µM in each case.

For `COc1ccc(C(=O)/C=C/c2sc(Cl)nc2Cl)cc1`, the GI50 in test [1] was 0.655 µM; in [2], 3.29 µM; in test [3] it was 4.57 µM; in [4] it was 1.7 µM; in test [5], 4.67 µM; in test [6], 3.11 µM. Also, the GI50 was 3.17 µM in test [7], 0.805 µM in test [8], 1.75 µM in test [9] and 3.26 µM in test [10]. Also, the TGI in [1] worked out at 17.8 µM; in [2], 18.6 µM; in test [3] it was 30.3 µM; in test [4], 5.45 µM; in [5], 20.2 µM; in test [6] it was 11.4 µM. In addition, the TGI was 10.6 µM in test [7], 3.33 µM in [8], 4 µM in [9] and 12.7 µM in test [10].

These data come from PubChem BioAssay (NCI).
